Experimental data reported in PMC5218480 (PLoS ONE, 2017).

Test system: MV-4-11 cells
Assay: Gene expression microarray analysis (Affymetrix PrimeView) and GSEA
Type: cell-based, human
Set-up: RFU PODN (11730768_x_at) / Fold change /veh PODN (11730768_x_at) / RFU LINC00158 (11744669_a_at) / Fold change /veh LINC00158 (11744669_a_at) / RFU DUSP10 (11751237_a_at) / Fold change /veh DUSP10 (11751237_a_at) / RFU ID3 (11757404_x_at) / Fold change /veh ID3 (11757404_x_at) / RFU PLEKHG5 (11737974_s_at) / Fold change /veh PLEKHG5 (11737974_s_at) / RFU LRRC4B (11730491_at) / Fold change /veh LRRC4B (11730491_at) / RFU GIMAP4 (11747438_a_at) / Fold change /veh GIMAP4 (11747438_a_at) / RFU KRT8 (11758183_x_at) / Fold change /veh KRT8 (11758183_x_at) / RFU CNN1 (11734310_a_at) / Fold change /veh CNN1 (11734310_a_at) / RFU VPS37D (11726825_at) / Fold change /veh VPS37D (11726825_at) / RFU C10orf10 (11716522_x_at) / Fold change /veh C10orf10 (11716522_x_at) / RFU KIR2DL2 /// KIR2DL4 /// KIR2DL5A /// KIR2DL5B /// KIR2DS1 /// KIR2DS2 /// KIR2DS3 /// KIR2DS4 /// KIR3DL3 /// KIR3DL3 /// KIR3DS1 (11738374_at) / Fold change /veh KIR2DL2 /// KIR2DL4 /// KIR2DL5A /// KIR2DL5B /// KIR2DS1 /// KIR2DS2 /// KIR2DS3 /// KIR2DS4 /// KIR3DL3 /// KIR3DL3 /// KIR3DS1 (11738374_at) / RFU C1QL1 (11718748_at) / Fold change /veh C1QL1 (11718748_at) / RFU TMPRSS4 (11747572_a_at) / Fold change /veh TMPRSS4 (11747572_a_at) / RFU HAMP (11756126_x_at) / Fold change /veh HAMP (11756126_x_at) / RFU RNFT2 (11725882_a_at) / Fold change /veh RNFT2 (11725882_a_at) / RFU NR4A2 (11747474_a_at) / Fold change /veh NR4A2 (11747474_a_at) / RFU ABCC12 (11746883_a_at) / Fold change /veh ABCC12 (11746883_a_at) / RFU TMEM136 (11760407_x_at) / Fold change /veh TMEM136 (11760407_x_at) / RFU CLDN22 /// WWC2 (11732394_at) / Fold change /veh CLDN22 /// WWC2 (11732394_at) / RFU HLA-DPB1 (11760878_x_at) / Fold change /veh HLA-DPB1 (11760878_x_at) / RFU SPINT1 (11716480_a_at) / Fold change /veh SPINT1 (11716480_a_at) / RFU GAP43 (11754022_s_at) / Fold change /veh GAP43 (11754022_s_at) / RFU A4GNT (11735810_at) / Fold change /veh A4GNT (11735810_at) / RFU PRB3 (11715151_x_at) / Fold change /veh PRB3 (11715151_x_at) / RFU TUBB4B (11761932_at) / Fold change /veh TUBB4B (11761932_at) / RFU CAPN14 (11732068_a_at) / Fold change /veh CAPN14 (11732068_a_at) / RFU TMCC2 (11721928_a_at) / Fold change /veh TMCC2 (11721928_a_at) / RFU IRGQ (11745062_a_at) / Fold change /veh IRGQ (11745062_a_at) / RFU FAM174B (11720279_a_at) / Fold change /veh FAM174B (11720279_a_at) / RFU TMPRSS4 (11748680_a_at) / Fold change /veh TMPRSS4 (11748680_a_at) / RFU FAM212B (11763350_a_at) / Fold change /veh FAM212B (11763350_a_at) / RFU PLEKHG5 (11743358_a_at) / Fold change /veh PLEKHG5 (11743358_a_at) / RFU ZSCAN30 (11745921_a_at) / Fold change /veh ZSCAN30 (11745921_a_at) / RFU CMKLR1 (11741424_a_at) / Fold change /veh CMKLR1 (11741424_a_at) / RFU LOC101060620 /// MAPK8IP1 (11723275_at) / Fold change /veh LOC101060620 /// MAPK8IP1 (11723275_at) / RFU SPTSSB (11747773_x_at) / Fold change /veh SPTSSB (11747773_x_at) / RFU PRSS12 (11739890_at) / Fold change /veh PRSS12 (11739890_at) / RFU BIN1 (11741810_x_at) / Fold change /veh BIN1 (11741810_x_at) / RFU WNT11 (11732464_a_at) / Fold change /veh WNT11 (11732464_a_at) / RFU C10orf10 (11716521_a_at) / Fold change /veh C10orf10 (11716521_a_at) / RFU C5orf56 (11738089_at) / Fold change /veh C5orf56 (11738089_at) / RFU CYB561 (11721691_x_at) / Fold change /veh CYB561 (11721691_x_at) / RFU ANKRD19P (11752326_a_at) / Fold change /veh ANKRD19P (11752326_a_at) / RFU OR2T12 /// OR2T33 /// OR2T8 (11738714_s_at) / Fold change /veh OR2T12 /// OR2T33 /// OR2T8 (11738714_s_at) / RFU VCAN (11748164_a_at) / Fold change /veh VCAN (11748164_a_at) / RFU JSRP1 (11732532_at) / Fold change /veh JSRP1 (11732532_at) / RFU KRTAP10-11 (11738290_x_at) / Fold change /veh KRTAP10-11 (11738290_x_at) / RFU MYO3A (11730013_a_at) / Fold change /veh MYO3A (11730013_a_at) / RFU EBF3 (11725865_a_at) / Fold change /veh EBF3 (11725865_a_at) / RFU CAMK2N1 (11719241_x_at) / Fold change /veh CAMK2N1 (11719241_x_at) / RFU C5orf56 (11738088_a_at) / Fold change /veh C5orf56 (11738088_a_at) / RFU OLFML3 (11715873_a_at) / Fold change /veh OLFML3 (11715873_a_at) / RFU LOC100653217 /// NTM (11731650_a_at) / Fold change /veh LOC100653217 /// NTM (11731650_a_at) / RFU MAPK11 (11762145_a_at) / Fold change /veh MAPK11 (11762145_a_at) / RFU FIZ1 (11724087_x_at) / Fold change /veh FIZ1 (11724087_x_at) / RFU OASL (11726364_x_at) / Fold change /veh OASL (11726364_x_at) / RFU SOX15 (11748057_x_at) / Fold change /veh SOX15 (11748057_x_at) / RFU CD79A (11719716_a_at) / Fold change /veh CD79A (11719716_a_at) / RFU HIST1H1D (11736915_at) / Fold change /veh HIST1H1D (11736915_at) / RFU CASKIN2 (11723855_a_at) / Fold change /veh CASKIN2 (11723855_a_at) / RFU LOC730098 (11760151_x_at) / Fold change /veh LOC730098 (11760151_x_at) / RFU OR4N2 (11742367_at) / Fold change /veh OR4N2 (11742367_at) / RFU PRRT2 (11749266_a_at) / Fold change /veh PRRT2 (11749266_a_at) / RFU SNX32 (11753110_a_at) / Fold change /veh SNX32 (11753110_a_at) / RFU CDHR5 (11726645_a_at) / Fold change /veh CDHR5 (11726645_a_at) / RFU RCAN1 (11760418_a_at) / Fold change /veh RCAN1 (11760418_a_at) / RFU FAM167A (11723789_a_at) / Fold change /veh FAM167A (11723789_a_at) / RFU FAM26E (11764081_at) / Fold change /veh FAM26E (11764081_at) / RFU ISYNA1 (11749810_s_at) / Fold change /veh ISYNA1 (11749810_s_at) / RFU ACY1 (11761880_at) / Fold change /veh ACY1 (11761880_at) / RFU 11764098_at / Fold change /veh 11764098_at / RFU SAMD14 (11745864_x_at) / Fold change /veh SAMD14 (11745864_x_at) / RFU NPB (11741838_a_at) / Fold change /veh NPB (11741838_a_at) / RFU TMPRSS6 (11731388_a_at) / Fold change /veh TMPRSS6 (11731388_a_at) / RFU KRTAP10-2 (11738614_at) / Fold change /veh KRTAP10-2 (11738614_at) / RFU ARHGAP8 /// PRR5-ARHGAP8 (11727945_x_at) / Fold change /veh ARHGAP8 /// PRR5-ARHGAP8 (11727945_x_at) / RFU KRTAP5-7 /// NADSYN1 (11734609_at) / Fold change /veh KRTAP5-7 /// NADSYN1 (11734609_at) / RFU RASL12 (11751679_a_at) / Fold change /veh RASL12 (11751679_a_at) / RFU CDKN2B (11736163_a_at) / Fold change /veh CDKN2B (11736163_a_at) / RFU PRF1 (11729649_at) / Fold change /veh PRF1 (11729649_at) / RFU, ZNF638 /// ZNF638-IT1 / Fold change vs veh, ZNF638 /// ZNF638-IT1 / RFU, PANK3 / Fold change vs veh, PANK3 / RFU, SH3YL1 / Fold change vs veh, SH3YL1 / RFU, ZEB2 / Fold change vs veh, ZEB2 / RFU, NRIP1 / Fold change vs veh, NRIP1 / RFU, PTTG1IP / Fold change vs veh, PTTG1IP / RFU, CAPN2 / Fold change vs veh, CAPN2 / RFU, MED14 / Fold change vs veh, MED14 / RFU, SNORA58 / Fold change vs veh, SNORA58 / RFU, C1orf63 / Fold change vs veh, C1orf63 / RFU, LRRFIP1 / Fold change vs veh, LRRFIP1 / RFU, NDUFAF7 / Fold change vs veh, NDUFAF7 / RFU, SLC12A2 / Fold change vs veh, SLC12A2 / RFU, IBTK / Fold change vs veh, IBTK / RFU, ESF1 / Fold change vs veh, ESF1 / Fold change vs veh, TMEM50B / RFU, TAOK1 / Fold change vs veh, TAOK1 / RFU, ACBD3 / Fold change vs veh, ACBD3 / RFU, TMA16 / Fold change vs veh, TMA16 / RFU, RWDD3 / Fold change vs veh, RWDD3 / RFU, BCAT1 / Fold change vs veh, BCAT1 / RFU, EDEM3 / Fold change vs veh, EDEM3 / RFU, TMEM33 / Fold change vs veh, TMEM33 / RFU, WDR75 / Fold change vs veh, WDR75 / RFU, AHCTF1 / Fold change vs veh, AHCTF1 / RFU, TFRC / Fold change vs veh, TFRC / RFU, ZDHHC17 / Fold change vs veh, ZDHHC17 / RFU, NOM1 / Fold change vs veh, NOM1 / RFU, ARL8B / Fold change vs veh, ARL8B / RFU, ZBTB11 / Fold change vs veh, ZBTB11 / RFU, TAMM41 / Fold change vs veh, TAMM41 / RFU, KIAA1704 /// LOC100996395 / Fold change vs veh, KIAA1704 /// LOC100996395 / RFU, ING1 / Fold change vs veh, ING1 / RFU, TRMT61B / Fold change vs veh, TRMT61B / RFU, FUBP3 / Fold change vs veh, FUBP3 / RFU, TP53 / Fold change vs veh, TP53 / RFU, TNKS2 / Fold change vs veh, TNKS2 / RFU, ZFP14 / Fold change vs veh, ZFP14 / RFU, ACTR2 / Fold change vs veh, ACTR2 / RFU, PPP3R1 / Fold change vs veh, PPP3R1 / RFU, PIK3R1 / Fold change vs veh, PIK3R1 / RFU, HNRNPA1 / Fold change vs veh, HNRNPA1 / RFU, RNF170 / Fold change vs veh, RNF170 / RFU, ZNF28 / Fold change vs veh, ZNF28 / RFU, RNGTT / Fold change vs veh, RNGTT / RFU, OGT / Fold change vs veh, OGT / RFU, BRD1 / Fold change vs veh, BRD1 / RFU, MARS / Fold change vs veh, MARS / RFU, ZNF655 / Fold change vs veh, ZNF655 / RFU, FAHD1 / Fold change vs veh, FAHD1 / RFU, BDP1 / Fold change vs veh, BDP1 / RFU, LRRCC1 / Fold change vs veh, LRRCC1 / RFU, ARID1A / Fold change vs veh, ARID1A / RFU, ZNF146 / Fold change vs veh, ZNF146 / RFU, ZNF330 / Fold change vs veh, ZNF330 / RFU, GPN3 / Fold change vs veh, GPN3 / RFU, C9orf123 / Fold change vs veh, C9orf123 / RFU, N4BP2L2 / Fold change vs veh, N4BP2L2 / RFU, ARFIP1 / Fold change vs veh, ARFIP1 / RFU, FAM179B / Fold change vs veh, FAM179B / RFU, BCL10 / Fold change vs veh, BCL10 / RFU, UHRF1BP1L / Fold change vs veh, UHRF1BP1L / RFU, BET1 / Fold change vs veh, BET1 / RFU, CNOT2 / Fold change vs veh, CNOT2 / RFU, ZNF268 / Fold change vs veh, ZNF268 / Fold change vs veh, ZNF507 / RFU, DGCR2 / Fold change vs veh, DGCR2 / RFU, WDSUB1 / Fold change vs veh, WDSUB1 / Fold change vs veh, HSP90B1 /// MIR3652 / RFU, ADSS / Fold change vs veh, ADSS / RFU, GK / Fold change vs veh, GK / RFU, ZNF148 / Fold change vs veh, ZNF148 / RFU, TAF9 / Fold change vs veh, TAF9 / RFU, SLC1A5 / Fold change vs veh, SLC1A5 / RFU, SLMO2 / Fold change vs veh, SLMO2 / RFU, ABCC4 / Fold change vs veh, ABCC4 / RFU, LOC101060439 /// RAP1B / Fold change vs veh, LOC101060439 /// RAP1B / RFU, RFX7 / Fold change vs veh, RFX7 / RFU, GTPBP10 / Fold change vs veh, GTPBP10 / RFU, CNEP1R1 / Fold change vs veh, CNEP1R1 / RFU, BIVM-ERCC5 /// ERCC5 / Fold change vs veh, BIVM-ERCC5 /// ERCC5 / RFU, ILF3 / Fold change vs veh, ILF3 / RFU 11762660_at / Fold change /veh 11762660_at / RFU VCAN (11757783_s_at) / Fold change /veh VCAN (11757783_s_at) / RFU DDX43 (11728927_at) / Fold change /veh DDX43 (11728927_at) / RFU KRT8 (11758188_x_at) / Fold change /veh KRT8 (11758188_x_at) / RFU NKD1 (11759106_at) / Fold change /veh NKD1 (11759106_at) / RFU SRD5A1 (11742802_a_at) / Fold change /veh SRD5A1 (11742802_a_at) / RFU TPSAB1 /// TPSB2 (11721975_s_at) / Fold change /veh TPSAB1 /// TPSB2 (11721975_s_at) / RFU GSTM3 (11746129_a_at) / Fold change /veh GSTM3 (11746129_a_at) / RFU IL23R (11737362_x_at) / Fold change /veh IL23R (11737362_x_at) / RFU TMEM51 (11727254_a_at) / Fold change /veh TMEM51 (11727254_a_at) / RFU PIWIL2 (11732686_x_at) / Fold change /veh PIWIL2 (11732686_x_at) / RFU ORM1 (11744905_x_at) / Fold change /veh ORM1 (11744905_x_at) / RFU CCDC152 (11743942_at) / Fold change /veh CCDC152 (11743942_at) / RFU ECM1 (11717891_a_at) / Fold change /veh ECM1 (11717891_a_at) / RFU IL23R (11748794_a_at) / Fold change /veh IL23R (11748794_a_at) / RFU TNFAIP8L3 (11732012_x_at) / Fold change /veh TNFAIP8L3 (11732012_x_at) / RFU MBOAT4 (11741988_at) / Fold change /veh MBOAT4 (11741988_at) / RFU 11764193_at / Fold change /veh 11764193_at / RFU TMEM53 (11763286_at) / Fold change /veh TMEM53 (11763286_at) / RFU MAGEB2 (11727129_at) / Fold change /veh MAGEB2 (11727129_at) / RFU TMEM200A (11744735_a_at) / Fold change /veh TMEM200A (11744735_a_at) / RFU CCDC152 (11751479_a_at) / Fold change /veh CCDC152 (11751479_a_at) / RFU FAM211A (11726209_a_at) / Fold change /veh FAM211A (11726209_a_at) / RFU RGS16 (11746705_a_at) / Fold change /veh RGS16 (11746705_a_at) / RFU VCAN (11755009_s_at) / Fold change /veh VCAN (11755009_s_at) / RFU RHOB (11743442_s_at) / Fold change /veh RHOB (11743442_s_at) / RFU RGS16 (11720943_a_at) / Fold change /veh RGS16 (11720943_a_at) / RFU RGS16 (11720944_at) / Fold change /veh RGS16 (11720944_at) / RFU, VPS4B / Fold change vs veh, VPS4B / RFU, CREB1 / Fold change vs veh, CREB1 / RFU, DNAJC13 / Fold change vs veh, DNAJC13 / RFU, GNAQ / Fold change vs veh, GNAQ / RFU, CDK5R1 / Fold change vs veh, CDK5R1 / RFU, ZRANB3 / Fold change vs veh, ZRANB3 / RFU, CUL4A / Fold change vs veh, CUL4A / RFU, CCNY / Fold change vs veh, CCNY / RFU, UFL1 / Fold change vs veh, UFL1 / RFU, COG3 / Fold change vs veh, COG3 / RFU, DIAPH2 / Fold change vs veh, DIAPH2 / RFU, SKA2 / Fold change vs veh, SKA2 / RFU, AFF3 / Fold change vs veh, AFF3 / RFU, LMF1 / Fold change vs veh, LMF1 / RFU, IPO11 / Fold change vs veh, IPO11 / RFU, DFFB / Fold change vs veh, DFFB / RFU, FOXP1 / Fold change vs veh, FOXP1 / RFU, CARD8 / Fold change vs veh, CARD8 / RFU, STRN3 / Fold change vs veh, STRN3 / RFU, ADK / Fold change vs veh, ADK / RFU, RASSF2 / Fold change vs veh, RASSF2 / RFU, WIPF1 / Fold change vs veh, WIPF1 / RFU, LARP1B / Fold change vs veh, LARP1B / RFU, RASA1 / Fold change vs veh, RASA1 / RFU, RB1 / Fold change vs veh, RB1 / RFU, PPFIA1 / Fold change vs veh, PPFIA1 / RFU, MAT2A / Fold change vs veh, MAT2A / RFU, CCT5 / Fold change vs veh, CCT5 / RFU, WDR92 / Fold change vs veh, WDR92 / RFU, CUX1 / Fold change vs veh, CUX1 / RFU, TTC7A / Fold change vs veh, TTC7A / RFU, TMEM135 / Fold change vs veh, TMEM135 / RFU, DEPTOR / Fold change vs veh, DEPTOR / RFU, CPM / Fold change vs veh, CPM / RFU, DNAJB6 / Fold change vs veh, DNAJB6 / RFU, CACNA2D3 / Fold change vs veh, CACNA2D3 / RFU, DTX4 / Fold change vs veh, DTX4 / RFU, TFCP2 / Fold change vs veh, TFCP2 / RFU, GMCL1 /// GMCL1P1 / Fold change vs veh, GMCL1 /// GMCL1P1 / RFU, AEBP2 / Fold change vs veh, AEBP2 / RFU, SNHG1 /// SNORD22 /// SNORD25 /// SNORD26 /// SNORD27 /// SNORD28 /// SNORD29 /// SNORD31 / Fold change vs veh, SNHG1 /// SNORD22 /// SNORD25 /// SNORD26 /// SNORD27 /// SNORD28 /// SNORD29 /// SNORD31 / Fold change (Aza/veh), C12orf56 (ProbeSet 11735607_a_at) / Fold change (ACY-1035/veh), C12orf56 (ProbeSet 11735607_a_at) / Fold change (Aza/veh), FGFR1OP (ProbeSet 11751329_s_at) / Fold change (ACY-1035/veh), FGFR1OP (ProbeSet 11751329_s_at) / Fold change (Aza/veh), VPS36 (ProbeSet 11739960_a_at) / Fold change (ACY-1035/veh), VPS36 (ProbeSet 11739960_a_at) / RFU SYPL1 (11715823_x_at) / Fold change /veh SYPL1 (11715823_x_at) / RFU IGFBP7 (11715501_s_at) / Fold change /veh IGFBP7 (11715501_s_at) / RFU REEP3 (11722064_at) / Fold change /veh REEP3 (11722064_at) / RFU IGLL1 (11728026_x_at) / Fold change /veh IGLL1 (11728026_x_at): dose or concentration left out as unconfirmed
Settings: ProbeSet 11748670_a_at; LIST B

## Nc1ccc(-c2cccs2)cc1NC(=O)c1ccc2c(c1)cc(C1CC1)n2CCN1CCOCC1 [ACY-1035]
  Fold change vs veh, PIK3R1: 0.90
